From patent US8821862B2, “Soluble β-N-acetylglucosaminidase based antibiofilm compositions and uses thereof” (Kane Biotech Inc., priority 2002, dated 2014)

Assays:
[1] = system: biofilm-embedded S. epidermidis; test: In vitro biofilm-dispersal assay in microcentrifuge tubes (sensitivity of biofilm-embedded cells, CFU plating); assay type: cell-based, Staphylococcus epidermidis; conditions: 3 h, 37° C.
[2] = system: biofilm-embedded S. epidermidis; test: In vitro biofilm killing assay after DispersinB pre-treatment; assay type: cell-based, Staphylococcus epidermidis; conditions: 37° C.
Experimental: An in vitro biofilm assay was performed to determine the effect of DispersinB™ pre-treatment on the susceptibility of S. epidermidis to SDS. S. epidermidis biofilm grown in tubes were pretreated with PBS or DispersinB™ (20 μg/ml) for 30 min, and then treated with SDS (0.2 mg/ml) for 5 min at 37° C. […] However, SDS caused a 1.5 log unit decrease in the number of CFUs in tubes pretreated with […] biofilm embedded cells more susceptible to SDS.
An in vitro biofilm assay was performed to determine the effect of DispersinB™ pre-treatment on the susceptibility of biofilm-embedded S. epidermidis to CHX. S. epidermidis biofilm grown in tubes were pretreated with PBS or DispersinB™ (20 μg/ml) for 30 min, and then treated with CHX (0.2 μg/ml) for 5 min at 37° C. […] However, CHX caused a 1.6 log decrease of CFU in tubes pretreated with DispersinB™. DispersinB™ pretreatment made biofilm-embedded cells more susceptible to CHX.
An in vitro biofilm assay was performed to determine the effect of DispersinB™ pre-treatment on the susceptibility of S. epidermidis to BKC. S. epidermidis biofilm grown in tubes were pretreated with PBS or DispersinB™ (20 μg/ml) for 30 min, and then treated with BKC (0.4 μg/ml) for 60 min at 37° C. […] However, BKC caused a 2.2 log decrease in CFU in tubes pretreated with DispersinB™. DispersinB™ pre-treatment made biofilm-embedded cells more susceptible to BKC.
An in vitro biofilm assay was performed to determine the effect of DispersinB™ pre-treatment on susceptibility of S. epidermidis to silver nanopowder (SNP). S. epidermidis biofilm grown in tubes were pretreated with PBS or DispersinB™ (20 μg/ml) for 30 min, and then treated with SNP (0.03125 μg/ml) for 60 min at 37° C. […] However, SNP caused a 1.5 log decrease in CFU in tubes pretreated with DispersinB™. DispersinB™ pre-treatment made biofilm embedded cells more susceptible to SNP treatment.

[3] = system: E. coli csrA luxCDABE kan^r biofilm; test: Bioluminescent E. coli biofilm on filter disc, luminescence; assay type: cell-based; conditions: Table 4, repeated experiment
Description: E. coli TRMG1655 [csrA::kan^r] strain was transformed with transposon, mini-TN5 luxCDABE::kan^r for luciferase expression (Kadurugamuwa et al., 2005, Infect. Immun. 73: 3878-3887), and the operon integrated into the chromosome. Integration was confirmed by amplification of the genomic DNA upstream of the transposon by inverse PCR using Ssp1-digested genomic DNA. Primers UTCF1 (5′-[…]-3′; SEQ ID NO:13) and UTCR (5′-[…]-3′; SEQ ID NO:14) were used to amplify the upstream region using Pfu DNA polymerase (Sigma-Oligosynthesis, St. Louis, Mo.). The lux operon is derived from Photorhabdus luminescence and was obtained from Xenogen Inc. (Alameda, Calif.). These bioluminescent bacteria allow real-time monitoring by noninvasive imaging of biofilms, either in vitro or in vivo.
A cell suspension of 10^6 E. coli csrA luxCDABE kan^r was used to inoculate a filter disc (Millipore Corporation, Billerica, Mass.). The E. coli biofilm was maintained in minimal media (M9) supplemented with 50 μg/ml kanamycin and 100 μg/ml ampicillin. The media were changed every day by transferring the disc to new plate. After 3 days, chemoluminescence activity of the established biofilm was measured using a Typhoon™ imaging scanner (General Electric Healthcare Life Sciences) and ImageQuant TL software (Amersham Biosciences, Sunnyvale, Calif.). The measure luminescence directly correlates with the metabolic activity of the biofilm.
Luminescence was measured at day 0 and was used as the control. Following the measurement of luminescence at day 0, each disc was treated with one of the following—media alone (control) and media containing:
Luminescence was measured every 24 hours followed by replacing the media. Thus, every 24 h following the measurement of the luminescence, 10 μl each of the different solutions was applied to the plate and the biofilm disc was placed on top of the drop everyday. The quantitative analysis of the biofilm luminescence from each day was used to compare the biofilm activity after treatment with the different treatments.
The experiments were repeated using the same E. coli strain csrA luxCDABE kan^r and protocols. Biofilm discs were pulsed with media alone (control) and media containing: […]

[4] = system: biofilm embedded S. epidermidis; test: 12-well microplate biofilm assay with CFU counting; assay type: cell-based, Staphylococcus epidermidis
Experimental: In vitro microplate assays were performed to determine the effect of DispersinB and PyrM combination on the growth of biofilm-embedded S. epidermidis. Overnight growth of S. epidermidis in tryptic soy broth (TSB) was used as inoculum. Biofilm was developed in 12-well microplate in the absence and presence of each test compound (1 μg/ml DispersinB or 8 μg/ml PyrM) separately and together (DispersinB+PyrM). The plates were incubated at 37° C. for 24 h. Medium containing planktonic cells in each well was removed gently and rinsed with sterile water. A known volume of water was added to each well and sonicated for seconds. The contents of each well was transferred into a sterile tube, vortexed for a minute, followed by 10-fold serial dilution, and plated on agar plates using a spreader. After incubating the plates at 37° C. for 24 h, colony-forming units (CFU) were counted.

[5] = system: biofilm embedded S. aureus; test: 12-well microplate biofilm assay with CFU counting; assay type: cell-based, Staphylococcus aureus; conditions: EGCG 100 ng/ml alone versus DispersinB alone
Experimental: An in vitro microplate assays were performed to determine the effects of a DispersinB™ and EGCG combination on the growth of biofilm embedded S. epidermidis and S. aureus. Overnight cultures of each bacterial strain grown in Tryptic Soy Broth (TSB) were used as inoculum. Biofilm was developed in TSB on a 12-well microplate in the absence and presence of each test compound (50 ng DispersinB™ or 100 ng/ml ECCG) separately and together (DispersinB™+EGCG). The plates were incubated at 37° C. for 24 hours. Medium containing planktonic cells in each well was removed gently and rinsed with sterile water. A known volume of water was added to each well and sonicated for 30 seconds. The contents of each well was transferred into a sterile tube, vortexed for a minute, followed by 10-fold serial dilution, and plated on agar plates using a spreader. After incubating the plates at 37° C. for 24 hours, colony forming units (CFU) were counted.

[6] = system: A. actinomycetemcomitans CU1000 biofilms; test: Biofilm killing assay; assay type: cell-based; conditions: for decrease in the number of CFU: then 0.01% SDS 5 min
Experimental: Biofilm Killing Assay. […] Tubes were vortexed for 10 s, and 20 μL aliquots of the detached biofilms were transferred to the wells of a flat-bottomed 96-well microtiter plate containing 180 μL of fresh broth. Five serial dilutions (20 μL into 180 μL) were performed directly into adjacent wells. Plates were incubated for 48 h and then rinsed and stained with crystal violet as described above. Wells containing 30-300 biofilm colonies were photographed under a dissecting microscope and counted. In some assays, biofilms were pre-treated with 1 mL of DispersinB™ (20 μg/mL in PBS) for 5 min prior to the SDS treatment. In these assays, a 100 μL quantity of SDS in PBS (at 10 times the test concentration) was added directly to the DispersinB™-treated cell suspension and mixed. After 5 min, tubes were vortexed briefly, and 20-μL aliquots of culture were enumerated as described above. Killing assays were performed in duplicate tubes on at least 5 separate occasions, with similar results.

[7] = system: A. actinomycetemcomitans planktonic cells; conditions: SDS; Drake et al. 1992, Wade & Addy 1992; cited from earlier work
[8] = system: A. actinomycetemcomitans strain CU1000 (wild-type) biofilms; test: Biofilm detachment assay (crystal violet); assay type: cell-based
Description: (§1) Bacterial strains, media, and growth conditions. A. actinomycetemcomitans strain CU1000 (serotype f) was isolated from a person with localized aggressive periodontitis (Fine et al., Microbiol. 1999, 145: 1335-1347). […] An isogenic PGA mutant strain HW1018 (CU1000 pgaC::IS903φKan) was isolated by randomly mutagenizing CU1000 with transposon IS903φKan and selecting mutants that produced white colonies on Congo red agar, as previously described (Kaplan et al., 2003; Kaplan et al., J. Bacteriol. 2004, 186: 8213-8220). Like other pgaC mutant strains, HW1018 was completely deficient in PGA production, but still formed tenacious biofilms on plastic surfaces (Kaplan et al., 2004). Bacteria were grown in trypticase soy broth supplemented with […] and 8 g/L glucose. Solid medium was supplemented with 15 g/L agar. All cultures were incubated statically at 37° C. in 10% CO2.
(§2) Biofilm Cultures. Biofilms were grown in 17 mm×100 mm culture tubes (untreated polystyrene; Falcon #352051) or 96-well microtiter plates (tissueculture-treated polystyrene, flat bottoms; Falcon #353072). Culture vessels were inoculated with a 1:10 dilution of inoculum in fresh broth (1 mL for tubes or 200 μL for microplates) and incubated for 24 h.
(§3) Crystal Violet Assay. Biofilm biomass was visualized and quantitated by means of a crystal violet binding assay as previously described (Kaplan et al., Antimicrob. Agents Chemother. 2004, 48: 2633-2636). Briefly, biofilms were rinsed with water to remove loosely attached cells, stained for 1 min with Gram's crystal violet (200 μL for microplates and 1 mL for tubes), rinsed, dried, and photographed. For quantitation of biofilms grown in microplates, biofilms were de-stained with 200 μL of 33% acetic acid for 5 min, and the absorbance of the crystal violet solution was measured directly in the plate by means of a BioRad Benchmark microtiter plate-reader set at 590 nm. Crystal violet binds to bacterial biofilms, but not to polystyrene (O'Toole & Kolter, Mol. Microbiol. 1998, 28: 449-461).
(§4) Biofilm Detachment Assay. Biofilms were rinsed with water and treated with 200 μL (for microplates) or 1 mL (for tubes) of DispersinB™ (20 μg/mL in PBS) or SDS (0.001-1% in PBS). After a five- or 30-minute incubation at 37° C., biofilms were rinsed with water and stained with crystal violet as described above. In some assays, biofilms were first treated with DispersinB™ for 5 or 30 min, rinsed, and then treated with SDS. All detachment assays were performed in duplicate wells or tubes. All assays were performed on at least 3 separate occasions, with similar results.

[9] = system: A. actinomycetemcomitans strain HW1018 (PGA mutant) biofilms; test: Biofilm detachment assay (crystal violet); assay type: cell-based; conditions: 0.1% SDS in PBS, 5 min; tubes and microplate wells
Description: as §1, §2, §3, §4

[10] = BisEDT 50 μg/ml, DispersinB 50 μg/ml, phage cocktail 10^8

glucose oxidase
inhibitory effect on biofilm-embedded S. epidermidis ([1]; glucose oxidase 10 U/m in combination with DispersinB 20 μg/ml): enhanced the inhibitory effect

benzalkonium chloride [BKC]
killing of biofilm-embedded S. epidermidis ([2]; BKC alone, 0.4 μg/ml, 60 min, PBS pretreatment): did not significantly kill | decrease in CFU ([2]; tubes pretreated with DispersinB 20 μg/ml 30 min, then BKC 0.4 μg/ml 60 min): 2.2 log

bismuth ethanedithiol [BisEDT]
luminescence, Day 1 [3, 10]: 245.27 RLU | luminescence, Day 2 [3, 10]: 83.51 RLU | luminescence, Day 3 [3, 10]: 8.02 RLU | luminescence, Day 4 [3, 10]: 47.62 RLU | luminescence, Day 0 ([3]; Day 0, before treatment (baseline)): 1815.26 RLU

[H]/N=C(\N/C(=N/[H])NCCCCCCNC(=N)NC(=N)Nc1ccc(Cl)cc1)Nc1ccc(Cl)cc1 [CHX, chlorhexidine]
killing of S. epidermidis biofilm ([2]; CHX alone, 0.2 μg/ml, 5 min, PBS pretreatment): did not significantly kill | decrease of CFU ([2]; tubes pretreated with DispersinB 20 μg/ml 30 min, then CHX 0.2 μg/ml 5 min): 1.6 log

O=C(O[C@@H]1Cc2c(O)cc(O)cc2O[C@@H]1c1cc(O)c(O)c(O)c1)c1cc(O)c(O)c(O)c1 [EGCG, Epigallocatechin gallate]
inhibiting the growth of biofilm embedded S. epidermidis, compound alone ([4]; EGCG 100 ng/ml alone versus DispersinB alone): more effective than DispersinB™ | inhibiting the growth of biofilm embedded S. aureus, compound alone [5]: more effective than DispersinB™

CCCCCCCCCCCCOS(=O)(=O)[O-].[Na+] [SDS, sodium dodecyl sulfate]
killing of biofilm-embedded S. epidermidis ([2]; SDS alone, 0.2 mg/ml, 5 min, PBS pretreatment): did not significantly kill | decrease in the number of CFUs ([2]; tubes pretreated with DispersinB 20 μg/ml 30 min, then SDS 0.2 mg/ml 5 min): 1.5 log unit | killing of A. actinomycetemcomitans biofilms ([6]; SDS alone, 0.01%, 5 min, mock pre-treatment): did not significantly kill | decrease in the number of CFU ([6]; tubes pre-treated with DispersinB 20 μg/mL for 5 min): 2 log-unit | decrease in the number of CFU ([6]; tubes pre-treated with DispersinB 20 μg/mL for 30 min): 4 log-unit | MIC against planktonic cells [7]: 0.01% | detachment of wild-type biofilms by SDS ([8]; 0.001-1% SDS, 5 min, microplate wells, mock pretreatment): resistant to detachment at all concentrations of SDS | attachment of wild-type biofilms ([8]; 0.1% SDS in PBS, 5 min, tubes and microplate wells): no effect | SDS concentrations at which biofilms were resistant to detachment ([8]; wild-type biofilms pre-treated with DispersinB 20 μg/mL 30 min, then SDS 5 min, microplate wells): < 0.04% | SDS concentration of transition from SDS-resistant to SDS-sensitive ([8]; wild-type biofilms pre-treated with DispersinB, same transition expressed in mM): 1.4 to 2.4 mM | detachment of PGA mutant biofilms [9]: rapid detachment

OC[C@@H](O)[C@H](O)[C@@H](O)CO [xylitol]
inhibitory effect on biofilm-embedded S. epidermidis ([1]; 5% xylitol in combination with DispersinB 20 μg/ml): slightly enhanced the inhibitory effect

O=C1C=CC(=O)N1c1ccccc1N1C(=O)C=CC1=O [oPDM, N,N-(1,2 phenylene)dimaleimide]
inhibiting the growth of biofilm-embedded S. epidermidis, compound alone ([4]; 625 μg/ml oPDM alone versus 1 μg/ml DispersinB alone): more effective than DispersinB

O=C1C=CC(=O)N1c1ccc2ccc3cccc4ccc1c2c34 [PyrM, N-(1-pyrenyl)maleimide]
inhibiting the growth of biofilm-embedded S. epidermidis, compound alone ([4]; 8 μg/ml PyrM alone versus 1 μg/ml DispersinB alone): more effective than DispersinB
